The subject of assay [1] is Quadruplex DNA. The assay can be described thus: Binding affinity to human c-KIT1 G4 quadruplex DNA assessed as change in melting temperature at 10 uM by UV analysis. In kind it is nucleic-acid assay.
Assay [2] relates to Quadruplex DNA. In words: Binding affinity to human 22AG_Na G4 quadruplex DNA assessed as change in melting temperature at 10 uM by UV analysis. In kind it is nucleic-acid assay.
For assay [3], the system named is Quadruplex DNA. In words: Binding affinity to human c-KIT2 G4 quadruplex DNA assessed as change in melting temperature at 10 uM by UV analysis. Format: nucleic-acid assay.
For assay [4], the system named is Quadruplex DNA. In words: Binding affinity to c-KIT1 G4 quadruplex DNA (unknown origin) by CD spectroscopy analysis. In kind it is nucleic-acid assay.
The subject of assay [5] is Quadruplex DNA. The assay can be described thus: Binding affinity to 22AG_Na G4 quadruplex DNA (unknown origin) assessed as change in melting temperature at 1:2 G4:ligand ratio by UV analysis (reference value: 55.9 degreeC). Format: nucleic-acid assay.
In assay [6] the test system is Quadruplex DNA. In words: Binding affinity to 22AG_K G4 quadruplex DNA (unknown origin) assessed as change in melting temperature at 1:2 G4:ligand ratio by UV analysis (reference value: 60.1 degreeC). Format: nucleic-acid assay.
Assay [7] deals with Quadruplex DNA. The assay can be described thus: Binding affinity to 22AG_Na G4 quadruplex DNA (unknown origin) by CD spectroscopy analysis. Format: nucleic-acid assay.
For assay [8], the system named is Quadruplex DNA. In words: Binding affinity to c-KIT1 G4 quadruplex DNA (unknown origin) assessed as change in melting temperature at 1:2 G4:ligand ratio by UV analysis (reference value: 66.5 degreeC). Format: nucleic-acid assay.
For assay [9], the system named is Quadruplex DNA. In words: Binding affinity to 23TA G4 quadruplex DNA (unknown origin) assessed as change in melting temperature at 1:2 G4:ligand ratio by UV analysis (reference value: 59.5 degreeC). Format: nucleic-acid assay.
The next assay has as its system Salmonidae. The assay can be described thus: Binding affinity to salmon testes […] DNA assessed as change in melting temperature at 1:2 […] ratio by UV analysis (reference value: 66.6 degreeC).
Assay [10] deals with Quadruplex DNA. In words: Binding affinity to c-KIT2 G4 quadruplex DNA (unknown origin) assessed as change in melting temperature at 1:2 G4:ligand ratio by UV analysis (reference value: 59.1 degreeC). In kind it is nucleic-acid assay.
Assay [11] deals with Quadruplex DNA. In words: Binding affinity to KRAS G4 quadruplex DNA (unknown origin) assessed as change in melting temperature at 1:2 G4:ligand ratio by UV analysis (reference value: 48.7 degreeC). In kind it is nucleic-acid assay.

The source made the active and inactive calls. No cut-off for these calls is given here.

Here are results for three molecules from ChEMBL document CHEMBL5223108, “Aiming to improve binding of porphyrin diphenyl guanidinium conjugates to guanine-quadruplexes: When size matters” (Bioorg Med Chem Lett, 2022).

Regarding `N=C(N)Nc1ccc(Oc2ccc(NC(=N)NC(=O)Nc3ccc(-c4c5nc(c(-c6ccccc6)c6ccc([nH]6)c(-c6ccccc6)c6nc(c(-c7ccccc7)c7ccc4[nH]7)C=C6)C=C5)cc3)cc2)cc1`, the ΔTm – broadly, the change in melting temperature against a reference sample – in the assay with Quadruplex DNA [1] is 2.2 °C; in the assay on Quadruplex DNA [2], -2.7 °C; in the assay on Quadruplex DNA [3], over 20 °C.
With `N=C(N)Nc1ccc(S(=O)(=O)c2ccc(NC(=N)NC(=O)Nc3ccc(-c4c5nc(c(-c6ccccc6)c6ccc([nH]6)c(-c6ccccc6)c6nc(c(-c7ccccc7)c7ccc4[nH]7)C=C6)C=C5)cc3)cc2)cc1`, the outcome with Quadruplex DNA [4] and in the assay on Quadruplex DNA [7] was inactive. Also, the thermal shift (ΔTm) was 10.2 °C in the assay on Quadruplex DNA [5]; -1.05 °C with Quadruplex DNA [6]; -7.84 °C in the assay with Quadruplex DNA [8]; 2.42 °C in the assay with Quadruplex DNA [9]; 0.02 °C in the assay on Salmonidae; -1.49 °C in the assay on Quadruplex DNA [10]. Further, the thermal shift (ΔTm) with Quadruplex DNA [11] amounted to 2.91 °C.
With `N=C(N)Nc1ccc(Sc2ccc(NC(=N)NC(=O)Nc3ccc(-c4c5nc(c(-c6ccccc6)c6ccc([nH]6)c(-c6ccccc6)c6nc(c(-c7ccccc7)c7ccc4[nH]7)C=C6)C=C5)cc3)cc2)cc1`, the ΔTm was 1 °C in the assay on Quadruplex DNA [1], -4.9 °C in the assay on Quadruplex DNA [2] and over 20 °C in the assay on Quadruplex DNA [3].
